US11142529B2 (priority 2013, dated 2021)

Key:
[1] = test system: aged-impaired (AI) rats; assay: Morris water maze behavioral task (Example 109); format: in vivo, rat; details: 100 μg ICV
Protocol: The effects of 6,6 dimethyl-3-(3-hydroxypropyl)thio-1-(thiazol-2-yl)-6,7-dihydro-2-benzothiophen-4(5H)-one on the in vivo spatial memory retention of aged-impaired (AI) rats were assessed in a Morris water maze behavioral task. A water maze is a pool surrounded with a novel set of patterns relative to the maze.
Cognitively impaired aged rats were implanted unilaterally with a cannula into the lateral ventricle. Stereotaxic coordinates were 1.0 mm posterior to bregma, 1.5 mm lateral to midline, and 3.5 mm ventral to the skull surface. After about a week of recovery, the rats were pre-trained in a water maze for 2 days (6 trials per day) to locate a submerged escape platform hidden underneath the surface of the pool, in which the escape platform location varied from day to day. No intracerebroventricular (ICV) infusion was given during pre-training.
After pre-training, rats received ICV infusion of either 100 μg 6,6 dimethyl-3-(3-hydroxypropyl)thio-1-(thiazol-2-yl)-6,7-dihydro-2-benzothiophen-4(5H)-one (n=6) in 5 μl DMSO or vehicle DMSO (n=5) 40 min prior to water maze training and testing. Training consisted of 8 trials per day for 2 days where the hidden escape platform remained in the same location. Rats were given 60 seconds to locate the platform with a 60 seconds inter-trial interval. The rats were given a probe test (120 seconds) 24 hr after the end of training where the escape platform was removed. During the training, there were 4 blocks, where each block had 4 training trials.
During a test trial 24 hr after training, the escape platform was removed. The search/swim pattern of the rats was used to measure whether the rats remember where the escape platform was located during pre-trial training in order to test for the long-term memory of the rats. In this trial, “target annulus” is a designated area 1.5 times the size of the escape platform around the area where the platform was located during pre-trial training. “Opposite annulus” is a control area of the same size as the size of the target annulus, which is located opposite to the target annulus in the pool. If the rats had good long term memory, they would tend to search in the area surrounding the location where the platform was during the pre-trial training (i.e., the “target” annulus; and not the “opposite” annulus). “Time in annulus” is the amount of time in seconds that the rat spent in the target or opposite annulus area. “Number (#) of crossings” in annulus is the number of times the rat swam across the target or opposite annulus area.

[2] = biological target: T1, α5β3γ2 GABAA receptors (Homo sapiens, UniProt P18507+P31644); assay: Binding activity of test compounds on GABAAR ([3H]Ro15-1788 inhibition, Ltk cell membranes)
T1 construct: membranes
Protocol: The binding was performed on Ltk cells stably expressing GABAA receptors: α1β1γ2, α2β3γ2, α3β3γ2 and α5β3γ2 (provided by Merck Co., NJ, USA). Cells were seeded in 100 mm culture plates in DMEM/F12 medium containing 10% serum and antibiotics in 5% C02 and allowed to grow for 1-2 days. GABAAR expression was then induced by dexamethasone as follows: 0.5 μM for 1 day for α5 containing and 2 μM for 3 days for α1, α2 and α3 containing GABAARs. After induction, cells were collected by scraping into Dulbecco's Phosphate buffered saline (DPBS, pH 7.4, Invitrogen, Carlsbad, Calif., USA) and centrifuged at 150×g for 10 min. The pellet was washed twice by re-suspension and centrifugation. The cell pellets from at least 5 different preps were combined, suspended in the binding assay buffer (50 mM KH2PO4; 1 mM EDTA; 0.2 M KCl, pH 7.4) and membranes prepared by sonication (3-5 times, 30 sec) using Branson Sonifier 150 (G.Heinmann, Germany). Protein content was determined using BCA assay (Bio-Rad Labs, Reinach, Switzerland) with Bovine Serum Albumin (Sigma Aldrich, St. Louis, Mo., USA) as the standard. Aliquots were prepared and stored at −20° C. for further use in binding assays.
Saturation binding curves were obtained by incubating membranes with increasing concentrations (0.01-8 nM) of [^3H]Ro15-1788 (Flumazepil, 75-85 Ci/mmol, PerkinElmer, MA, USA), with nonspecific binding measured in the presence of 10 μM diazepam.
All binding assays were performed for 1 h at 4° C. in assay buffer. The total assay volume was 0.5 ml containing 0.2 mg/ml protein for α5 and 0.4 mg/ml for α1, α2, and α3 containing GABAAR membranes. Incubations were terminated by filtration through GF/B filters using a 24-Cell Harvestor (Brandel, Gaithersburg, Md., USA) followed by 3 washes with ice-cold assay buffer. Filters were transferred to scintillation vials, 5 ml scintillation liquid added, vortex-mixed and kept in dark. Next day, radioactivity was obtained using a scintillation counter (Beckman Coulter, Brea, Calif., USA). All assays were performed in triplicate.
Saturation and inhibition curves were obtained using GraphPad Prism software (GraphPad Software, Inc., CA, USA).

[3] = biological target: T2, GABAA receptors (α5β2γ2) (Homo sapiens, UniProt P18507+P31644); assay: Positive allosteric modulator activity, potentiation of EC20 GABA current in oocytes; format: cell-based; details: read-out: GABA α5 functional potentiation
T2 construct: expressed in transfected cells; host or cells: oocytes injected with a mix of alpha, beta and gamma cDNA (1:1:10 by weight)
Protocol: On day 1, 1 ng/32 nL of GABAA […] cDNA was injected into one oocyte. Test starts on day 2. The cDNA injected to the oocytes was a mix of alpha, beta and gamma, their ratio is 1:1:10 (by weight) and the total weight of the mixed 3 subunits to be injected in one oocyte was 1 ng in 32 nl volume. The injected oocytes can also be tested on day 3. In such case, the cDNA amount injected to the oocytes should be reduced by 20%.
1). 8 oocytes were placed in 8 chambers of OpusXpress and superfused with Modified Barth's Saline (MBS) at 3 mL/min. Glass electrodes back-filled with 3M KCl (0.5-3 megaohms) were used.
3). […] Oocytes were washed with MBS for 5-10 min.
2). […] Divide Itest by IGABA to obtain potentiation (%).
3). Discard all tested oocytes, new oocytes were used and the above steps 1) and 2) were repeated to test second concentration of the same compound. Each oocyte was used for only one concentration test for a single test compound. The steps were repeated for other test compounds.

[4] = biological target: T3, α5-containing GABAA receptor (Rattus norvegicus, UniProt P18508+P19969); format: in vivo; details: i.v.; for effect on Ro 15-4513 binding in hippocampus: 0.01-10 mg/kg
T3 construct: occupancy in the hippocampus (a region of high GABAAα5 receptor density); from tissue; host or cells: rat brain in vivo; hippocampus versus cerebellum

[5] = test system: α5-containing GABAA receptor; format: in vivo, rat; details: 0.01-10 mg/kg, i.v.
[6] = biological target: T4, GABAAα5 receptor (Rattus norvegicus, UniProt P18508+P19969); assay: GABAA α5 receptor occupancy with Ro 15-4513 tracer (Example 107B); format: in vivo, Long Evans rats
T4 construct: occupancy in the hippocampus (a region of high GABAAα5 receptor density); from tissue; host or cells: rat brain in vivo; hippocampus versus cerebellum
From the text: Food and water were available ad libitum.

[7] = test system: MAM-treated rats; details: cited from earlier work
[8] = test system: aged-impaired (AI) rats; assay: Radial Arm Maze (RAM) behavioral task, four-hour delay (Example 108); format: in vivo, rat
Protocol: The same experiment was repeated using the same vehicle control and doses of ethyl 3-methoxy-7-methyl-9H-benzo[f]imidazo[1,5-a][1,2,4]triazolo[4,3-d][1,4]diazepine-10-carboxylate, where the vehicle control was tested 5 times, the 3 mg/kg dose of ethyl 3-methoxy-7-methyl-9H-benzo[f]imidazo[1,5-a][1,2,4]triazolo[4,3-d][1,4]diazepine-10-carboxylate was tested 4 times, and the other doses of ethyl 3-methoxy-7-methyl-9H-benzo[f]imidazo[1,5-a][1,2,4]triazolo[4,3-d][1,4]diazepine-10-carboxylate were tested twice.
Parametric statistics (paired t-tests) was used to compare the retention test performance of the AI rats in the four-hour delay version of the RAM task in the context of different doses of ethyl 3-methoxy-7-methyl-9H-benzo[f]imidazo[1,5-a][1,2,4]triazolo[4,3-d][1,4]diazepine-10-carboxylate and vehicle control (see FIG. 5).

[9] = probe test 24 hr after training
[10] = vehicle then tracer 1 μg/kg i.v.

T1 sequence (P31644 32-462): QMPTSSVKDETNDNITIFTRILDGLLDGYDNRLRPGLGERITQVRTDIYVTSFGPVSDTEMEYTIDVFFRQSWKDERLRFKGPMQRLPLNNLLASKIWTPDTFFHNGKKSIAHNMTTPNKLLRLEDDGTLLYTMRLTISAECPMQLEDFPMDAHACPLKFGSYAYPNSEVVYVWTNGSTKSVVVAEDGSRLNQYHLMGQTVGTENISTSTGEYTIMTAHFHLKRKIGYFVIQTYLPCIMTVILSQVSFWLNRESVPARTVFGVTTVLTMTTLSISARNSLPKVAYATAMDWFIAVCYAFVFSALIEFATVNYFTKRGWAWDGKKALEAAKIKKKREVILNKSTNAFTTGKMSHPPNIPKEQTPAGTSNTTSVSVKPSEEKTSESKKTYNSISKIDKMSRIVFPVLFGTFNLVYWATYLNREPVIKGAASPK
T1 sequence (P28472 26-473 partner): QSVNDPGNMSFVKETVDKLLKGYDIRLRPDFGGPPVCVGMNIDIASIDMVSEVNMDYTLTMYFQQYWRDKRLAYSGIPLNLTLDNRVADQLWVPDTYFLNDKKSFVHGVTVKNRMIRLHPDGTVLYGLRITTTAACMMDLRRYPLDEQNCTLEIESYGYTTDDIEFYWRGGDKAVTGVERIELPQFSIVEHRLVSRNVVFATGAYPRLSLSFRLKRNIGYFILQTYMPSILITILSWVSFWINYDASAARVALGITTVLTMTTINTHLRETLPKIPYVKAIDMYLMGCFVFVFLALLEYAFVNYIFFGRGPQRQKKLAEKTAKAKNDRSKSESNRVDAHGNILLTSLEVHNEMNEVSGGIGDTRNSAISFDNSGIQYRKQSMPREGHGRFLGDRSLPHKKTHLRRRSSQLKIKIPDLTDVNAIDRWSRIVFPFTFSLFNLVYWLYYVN
T1 sequence (P18507 40-475): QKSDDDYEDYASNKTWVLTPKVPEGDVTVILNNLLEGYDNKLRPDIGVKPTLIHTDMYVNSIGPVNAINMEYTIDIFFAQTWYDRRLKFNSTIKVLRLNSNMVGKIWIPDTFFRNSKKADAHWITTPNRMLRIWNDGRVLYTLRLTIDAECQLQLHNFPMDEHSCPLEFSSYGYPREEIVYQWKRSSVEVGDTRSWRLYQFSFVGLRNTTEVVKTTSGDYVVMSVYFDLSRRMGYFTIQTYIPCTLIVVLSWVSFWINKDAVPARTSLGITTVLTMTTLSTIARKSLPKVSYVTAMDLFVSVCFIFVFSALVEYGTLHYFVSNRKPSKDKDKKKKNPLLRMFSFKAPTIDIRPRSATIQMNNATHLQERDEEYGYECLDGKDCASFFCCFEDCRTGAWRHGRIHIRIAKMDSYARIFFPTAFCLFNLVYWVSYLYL
T2 sequence (P31644 32-462): as the sequence (P31644 32-462) above
T2 sequence (P47870 25-512 partner limits assumed): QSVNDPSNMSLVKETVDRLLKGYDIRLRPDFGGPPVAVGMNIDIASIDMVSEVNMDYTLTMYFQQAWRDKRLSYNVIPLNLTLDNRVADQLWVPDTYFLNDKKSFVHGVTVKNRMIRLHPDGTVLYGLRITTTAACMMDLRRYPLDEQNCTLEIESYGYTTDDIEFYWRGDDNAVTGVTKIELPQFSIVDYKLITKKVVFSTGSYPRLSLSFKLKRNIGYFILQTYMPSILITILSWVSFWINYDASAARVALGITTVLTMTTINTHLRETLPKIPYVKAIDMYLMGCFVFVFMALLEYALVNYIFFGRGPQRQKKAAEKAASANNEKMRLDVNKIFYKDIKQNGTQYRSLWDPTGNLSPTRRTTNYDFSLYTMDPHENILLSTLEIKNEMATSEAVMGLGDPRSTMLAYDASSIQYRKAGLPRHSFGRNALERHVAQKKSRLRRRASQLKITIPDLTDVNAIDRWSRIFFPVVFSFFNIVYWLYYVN
T2 sequence (P18507 40-475): as the sequence (P18507 40-475) above
T4 sequence (P19969 32-464 limits assumed): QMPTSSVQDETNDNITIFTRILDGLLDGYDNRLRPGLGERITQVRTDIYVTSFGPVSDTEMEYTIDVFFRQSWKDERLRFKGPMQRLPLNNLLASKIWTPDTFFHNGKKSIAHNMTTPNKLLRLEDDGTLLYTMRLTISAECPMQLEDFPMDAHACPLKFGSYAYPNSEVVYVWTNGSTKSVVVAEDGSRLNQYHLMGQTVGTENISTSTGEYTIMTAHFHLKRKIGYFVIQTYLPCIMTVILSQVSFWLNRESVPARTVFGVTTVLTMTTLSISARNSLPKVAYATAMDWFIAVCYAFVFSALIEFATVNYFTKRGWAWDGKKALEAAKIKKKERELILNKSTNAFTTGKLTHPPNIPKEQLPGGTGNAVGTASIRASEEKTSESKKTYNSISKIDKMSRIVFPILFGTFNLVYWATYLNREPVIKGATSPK
T4 sequence (P18508 39-466): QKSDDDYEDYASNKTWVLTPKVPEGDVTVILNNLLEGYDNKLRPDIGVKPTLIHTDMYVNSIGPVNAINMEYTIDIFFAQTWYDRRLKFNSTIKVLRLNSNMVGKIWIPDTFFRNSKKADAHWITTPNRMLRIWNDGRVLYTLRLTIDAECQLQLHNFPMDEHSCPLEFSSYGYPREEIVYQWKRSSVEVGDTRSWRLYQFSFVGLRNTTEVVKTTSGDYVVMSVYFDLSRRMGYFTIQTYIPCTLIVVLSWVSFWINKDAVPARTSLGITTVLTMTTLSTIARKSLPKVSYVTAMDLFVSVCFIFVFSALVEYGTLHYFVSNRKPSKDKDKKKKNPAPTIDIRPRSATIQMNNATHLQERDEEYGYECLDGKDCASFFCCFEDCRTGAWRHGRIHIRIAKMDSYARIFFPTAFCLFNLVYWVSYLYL
T3 sequence (P19969 32-464 limits assumed): as the sequence (P19969 32-464 limits assumed) above
T3 sequence (P18508 39-466): as the sequence (P18508 39-466) above

## CC1(C)CC(=O)c2c(SCCCO)sc(-c3nccs3)c2C1 [6,6 dimethyl-3-(3-hydroxypropyl)thio-1-(thiazol-2-yl)-6,7-dihydro-2-benzothiophen-4(5H)-one]
[1]
  learning of the water maze task: improved the learning
  long-term memory in the water maze task: improved the long-term memory
[1]; [9]
  number of crossings of target annulus compared to opposite annulus: more often
  time in target annulus compared to opposite annulus: spent significantly more time in the target annulus
[1]; training block 1
  time to find the escape platform (escape latency): about 24 seconds
[1]; training block 4
  time to find the escape platform (escape latency): about 9.6 seconds

## Cc1nnn2c1Cc1c(-c3noc(C(C)C)n3)ncn1-c1ccc(F)cc1-2 [Compound 149]
[2]
  Ki: < 99 nM
[3]
  activation at 0.1 µM: > 50%

## Cc1nnn2c1Cc1c(C(=O)OC(C)C)ncn1-c1ccccc1-2 [Compound 153]
[2]
  Ki: < 99 nM
[3]
  activation at 0.1 µM: 20 to 49%

## CCc1nc(-c2ncn3c2Cc2c(C)nnn2-c2cc(F)ccc2-3)no1 [Compound 155]
[2]
  Ki: < 99 nM
[3]
  activation at 0.1 µM: 20 to 49%

## CCc1nc(-c2ncn3c2Cn2c(COc4ccccc4)nnc2-c2cc(F)ccc2-3)no1 [Compound 158]
[2]
  Ki: < 99 nM
[3]
  activation at 0.1 µM: 20 to 49%

## Cc1nnn2c1Cc1c(-c3noc(C(C)(C)C)n3)ncn1-c1ccc(F)cc1-2 [Compound 160]
[2]
  Ki: < 99 nM
[3]
  activation at 0.1 µM: > 50%

## COc1ccc2c(c1)-c1nnc(COc3ccccc3)n1Cc1c(-c3noc(C)n3)ncn1-2 [Compound 162]
[2]
  Ki: < 99 nM
[3]
  activation at 0.1 µM: 20 to 49%

## COc1ccc2c(c1)-c1nnc(COc3ccc(F)cc3)n1Cc1c(-c3noc(C)n3)ncn1-2 [Compound 163]
[2]
  Ki: < 99 nM
[3]
  activation at 0.1 µM: 20 to 49%

## COc1ccc2c(c1)-c1nnc(COc3ccccc3)n1Cc1c(-c3noc(C(C)C)n3)ncn1-2 [Compound 171]
[2]
  Ki: < 99 nM
[3]
  activation at 0.1 µM: > 50%

## COc1ccc2c(c1)-c1nnc(COc3ccc(F)cc3)n1Cc1c(-c3noc(C(C)C)n3)ncn1-2 [Compound 172]
[2]
  Ki: < 99 nM
[3]
  activation at 0.1 µM: > 50%

## CCOCc1nnc2n1Cc1c(-c3noc(C(C)C)n3)ncn1-c1ccc(OC)cc1-2 [Compound 173]
[2]
  Ki: < 99 nM
[3]
  activation at 0.1 µM: > 50%

## COc1ccc2c(c1)-c1nnc(COc3ccccc3F)n1Cc1c(-c3noc(C(C)C)n3)ncn1-2 [Compound 174]
[2]
  Ki: < 99 nM
[3]
  activation at 0.1 µM: > 50%

## COc1ccc2c(c1)-c1nnc(COc3ccccc3Cl)n1Cc1c(-c3noc(C(C)C)n3)ncn1-2 [Compound 175]
[2]
  Ki: < 99 nM
[3]
  activation at 0.1 µM: 20 to 49%

## COc1ccc2c(c1)-c1nnc(COc3cccnc3)n1Cc1c(-c3noc(C(C)C)n3)ncn1-2 [Compound 176]
[2]
  Ki: < 99 nM
[3]
  activation at 0.1 µM: > 50%

## COc1ccc2c(c1)-c1nnc(COc3cccc4ccccc34)n1Cc1c(-c3noc(C(C)C)n3)ncn1-2 [Compound 177]
[2]
  Ki: < 99 nM
[3]
  activation at 0.1 µM: > 50%

## COc1ccc2c(c1)-c1nnc(COC3CCCC3)n1Cc1c(-c3noc(C(C)C)n3)ncn1-2 [Compound 178]
[2]
  Ki: < 99 nM
[3]
  activation at 0.1 µM: > 50%

## COc1ccc2c(c1)-c1nnc(COc3cccc(F)c3)n1Cc1c(-c3noc(C(C)C)n3)ncn1-2 [Compound 179]
[2]
  Ki: < 99 nM
[3]
  activation at 0.1 µM: > 50%

## CCOC(=O)c1ncn2c1Cn1c(C)nnc1-c1cc(OC)ccc1-2 [Ethyl 3-methoxy-7-methyl-9H-benzo[f]imidazo[1,5-a][1,2,4]tri]
[4]
  effect on Ro 15-4513 binding in hippocampus: blocked the binding
[5]
  effect on cerebellum levels of Ro 15-4513: did not affect binding

## CCOC(=O)c1ncn2c1CN(C)C(=O)c1cc(N=[N+]=[N-])ccc1-2 [Ro 15-4513]
[6]; tracer 1 μg/kg i.v.
  Ro 15-4513 level in hippocampus compared with cerebellum: > 5 fold
[6]; [10]
  level of Ro 15-4513 in cerebellum: 0.36 ± 0.02 ng/g
  level of Ro 15-4513 in hippocampus: 1.93 ± 0.05 ng/g

## C#Cc1ccc2c(c1)C(c1ccccc1F)=N[C@H](C)c1c(C(=O)OCC)ncn1-2 [SH-053-2′F—R—CH3]
[7]; rat, in vivo
  increased locomotor response to amphetamine in MAM-treated rats: is reduced
[7]; saline-treated and MAM-treated animals
  cortical-evoked responses of HPC neurons: diminished cortical-evoked responses

## CCOC(=O)c1ncn2c1Cn1c(C)nnc1-c1cc(OC)ccc1-2 [ethyl 3-methoxy-7-methyl-9H-benzo[f]imidazo[1,5-a][1,2,4]tri]
[8]; 3 mg/kg, t(7)=4.13, p=0.004, or t(7)=3.08, p=0.018
  memory performance relative to vehicle control: significantly improved memory performance
[8]; 10 mg/kg, t(7)=2.82, p=0.026
  memory performance relative to vehicle control: significantly improved memory performance
[4]
  effect on Ro 15-4513 binding in hippocampus: reduced Ro 15-4513 binding in hippocampus
[4]; 10 mg/kg
  α5-containing GABAA receptor occupancy: > 90%
[5]
  effect on cerebellum levels of Ro 15-4513: without affecting
